Laboratory results reported in US20230270772A1, “USE OF 5'-METHYLTHIOADENOSINE IN PREPARATION OF OBESITY-SUPPRESSING DRUGS OR HEALTH CARE PRODUCTS” (Zhejiang Chinese Medical University, priority 2022, published 2023).

Columns and labels:
[1] = system: high-fat diet-induced obesity in C57BL/6 mice; assay: Suppression of high-fat diet-induced obesity, gavage for 11 weeks; format: in vivo; conditions: 50 and 100 mg/kg/day by gavage
Procedure: (§1) Eight-week-old C57BL/6 mice were divided into three groups (a control group, a model group, and a drug-treated group). The mice of control group were fed with a low-fat diet, the mice of model group were fed with a high-fat diet, and the mice of drug-treated group were fed with high-fat diet+5′-methylthioadenosine (50 and 100 mg/kg/day) by gavage for 11 weeks, during which the body weight of the mice was recorded, and OGTT and ITT thereof were conducted.

[2] = system: HepG2 hepatoma cells; assay: Suppression of uric acid-induced lipogenesis in HepG2 hepatoma cells (oil red staining); format: cell-based; conditions: uric acid 120 μg/mL + 0.05, 0.1, 0.5, 1.0 and 5.0 μg/mL for 24 h, FIG. 3
Procedure: HepG2 hepatoma cells were induced to synthesize fat by uric acid (120 μg/mL). After 24 h, the cells were divided into two groups for testing. The cells of model group continued to be induced with uric acid (120 μg/mL) for 24 h.

[3] = system: high-fat diet-induced obesity in C57BL/6 mice; assay: Suppression of high-fat diet-induced obesity, gavage for 9 weeks; format: in vivo; conditions: 100 mg/kg/day by gavage
Procedure: as §1, with “group) (FIG. 4A).” for “group).”, “diet, and” for “diet,”, “diet ad libitum. The” for “diet, and the”, “(100” for “(50 and 100”, “9” for “11”

[4] = system: high-fat diet-induced obesity in C57/BL mice; assay: Comparison of MTA and adenosine in suppressing high-fat diet-induced obesity; format: in vivo; conditions: 8-week-old C57BL/6 mice, tube-feeding 100 mg/kg/day, FIG. 2A-2D
Description: Experimental animals: 8-week-old C57BL/6 mice; Diets and drugs: low-fat diet (10% kcal as fat, product #D12450J, Research Diets), high-fat diet (60% kcal as fat, product #D12492, Research Diets), MTA, and adenosine.

Compound	high-fat diet-induced obesity (body weight) ([1]; FIG. 5A, 5B)	oral glucose tolerance and insulin tolerance (OGTT, ITT) ([1]; FIG. 5G-5J)	liver lipogenesis and gains of subcutaneous and visceral fats (perirenal, testicular) ([1]; after sacrifice, FIG. 5C-5F)	uric acid-induced lipogenesis (amount of synthetic fat, oil red staining) [2]	high-fat diet-induced obesity (body weight) ([3]; FIG. 4B)	oral glucose tolerance and insulin tolerance (OGTT, ITT) ([3]; FIG. 4H, 4I)	liver lipogenesis and gains of subcutaneous and visceral fats ([3]; after sacrifice, FIG. 4C-4G)	obesity-suppressing effect (body weight, liver weight, subcutaneous and visceral fat weight) [4]
CSC[C@H]1O[C@@H](n2cnc3c(N)ncnc32)[C@H](O)[C@@H]1O [5′-methylthioadenosine, 5′-Methylthioadenosine]	significantly suppressing high-fat diet-induced obesity, with a concentration gradient effect	improving oral glucose tolerance and insulin tolerance in mice	suppressing the liver lipogenesis and the gains of subcutaneous fats and visceral fats, with a concentration gradient effect	significantly inhibiting uric acid-induced lipogenesis in HepG2 cells with a concentration gradient effect	significantly suppressing high-fat diet-induced obesity	improving oral glucose tolerance and insulin tolerance in mice	suppressing the liver lipogenesis and the gains of subcutaneous fats and visceral fats	significantly better than that of adenosine
Nc1ncnc2c1ncn2[C@@H]1O[C@H](CO)[C@@H](O)[C@H]1O [adenosine]	–	–	–	–	–	–	–	shown to inhibit the body weight and liver weight gains and fat accumulation in mice
